Test results taken from US11214567B2, “Small molecule inhibitors of MYC and uses thereof” (The Regents of the University of Michigan, priority 2017, dated 2022).
Entries after “also recorded” stand apart in the source; their conditions may differ.

Experiments:
OVCAR8 = test: MTT assay (cytotoxicity), OVCAR8; assay type: cell-based; settings: Homo sapiens, OVCAR-8, 72 h, drug concentration causing a 50% decrease in cell population
Experimental: The evaluation of cytotoxicity was based on the reduction of MTT dye by viable cells to give purple formazan products, which can be measured spectrophotometrically at 540 nm. One hundred eighty microliters of cancer cells were seeded into 96-well plates at 3,500-4,000 cells/well and incubated at 37° C. overnight before the indicated treatments. After 72 h, 20 μl of MTT solution (3 mg/ml) was added and incubated again for 3 h. After removal of media and solubilization of formazan crystals in 150 μL of DMSO, the absorbance was measured at 570 nm. Percentage of cell growth inhibition was expressed as 1-[(A−B)/(C−B)]×100% (A, B and C were the absorbance values from experimental, blank and control cells, respectively).
KJA derivatives were tested by the MTT assay against five human cancer cell lines including ovarian cancer cell lines (OVCAR-8, NCI/ADR-RES and SKOV3) and pancreatic cancer cell lines (MIA PaCa-2 and Pac-1). […] It is important to note that the NCI/ADR-RES cell line shares a large number of karyotypic abnormalities with OVCAR-8 but expresses high levels of MDR1 (multidrug resistance protein 1)/P-glycoprotein (see, e.g., Xu, S.; et al., Proceedings of the National Academy of Sciences 2012, 109, 16348-16353), resulting in resistance to multiple anticancer drugs in clinical use, including paclitaxel and doxorubicin.

C-MYC = test: Western blotting of C-MYC protein levels in cancer cells; assay type: cell-based, human
Experimental: Cells (5×10^5) were cultured in 6-well plate and treated with KJA03 at designated concentrations. After treatment, cells were lysed with cell lysis buffer on ice at 4° C., sonicated for 3 min, centrifuged (12,000 rpm, 10 min, 4° C.) and then, the supernatant was collected. Protein concentrations of supernatants were evaluated with BCA assay. Proteins were resolved in 10% SDS/PAGE and electrotransferred to Immun-Blot PVDF membrane (Bio-Rad). After blocking with 5% milk in TBST (Tris-buffered saline with 0.1% Tween 20), membranes were probed with primary antibodies (anti-PARP, anti-caspase 3 and anti-GAPDH) 1:1000 dilutions overnight at 4° C. Membranes were then washed with TBST (5 min×3), incubated with Dylight 800-conjugated secondary antibodies 1:7500 dilutions in 5% milk for 1 h at room temperature, and washed with TBST (5 min×3). Fluorescent signal was then scanned by Odyssey Imaging Systems (LI-COR Biosciences).
The effect of KJA03 on the MYC protein levels, including C-MYC and N-MYC, NCI/ADR-RES cells were treated with KJA03 at concentration of 0.1 (half IC50) and 0.2 (IC50) μM for 24 and 48 h. […] It has previously been reported that JQ1 treatment leads to down-regulation of c-MYC protein levels in osteosarcoma, leukemia and lymphoma cells (see, e.g., Mertz, J. A.; et al., Proceedings of the National Academy of Sciences 2011, 108, 16669-16674).
Experiments were conducted to further repeat the experiment and JQ1 was chosen as a positive control. As expected, expression of C-MYC was reduced by KJA03 at 24 h of treatment, correlated with previous experiment (FIG. 3).
Experiments were conducted that further performed a time-course experiment to evaluate C-MYC suppression including 2, 6, 8 24 and 48 h at concentration of 0.2 μM. To define the specificity of MYC suppression in further detail, we treated cells with a range of compound concentrations at 24 h. […] To determine whether KJA03 can suppress C-MYC in different cell lines, we next investigated the level of C-MYC in response to treatment with KJA03 at 0.2 μM using other three different OVCAR8, MIA PaCa-2 and Panc-1 cell lines.

TXNIP = test: Western blotting of TXNIP protein levels; assay type: cell-based, human; settings: NCI/ADR-RES; Western blot
NCI/ADR-RES cell line = test: Bru-seq, changes in transcription; assay type: cell-based, human
Description: Furthermore, to better understand the potential mechanism of KJA03, we performed Bru-seq to examine the global changes in transcription in NCI/ADR-RES cells.

Compound: Cc1ccc(-c2noc(-c3ccccc3-n3c(-c4ccc(C)cc4)noc3=O)n2)cc1 [KJA03, 3-(P-tolyl)-4-(2-(3-(p-tolyl)-1,2,4-oxadiazol-5-yl)phenyl)-1,2,4-oxadiazol-5(4H)-one]
- IC50 (OVCAR8): 140 ± 50 nM
- MYC suppression, ovarian versus pancreatic cancer cells (C-MYC; 0.2 μM, OVCAR8, NCI/ADR-RES, MIA PaCa-2 and Panc-1): suppresses MYC strongly in ovarian cancer cells
- MYC protein levels (C-MYC; 0.1 (half IC50) and 0.2 (IC50) μM at 24 and 48 h): significantly reduce MYC protein levels
- C-MYC protein levels, range of concentrations (C-MYC; MiaPaca-2): down-regulated dose-dependently
- C-MYC protein levels (C-MYC; NCI/ADR-RES cells, 0.2 μM, 24 h): reduced C-MYC levels; also recorded: efficiently decrease the C-MYC protein levels
- C-MYC suppression, time-course (C-MYC; NCI/ADR-RES, 0.2 μM, 2, 6, 8, 24 and 48 h): significantly suppressed only at 24 h
- C-MYC protein levels, range of concentrations (C-MYC; NCI/ADR-RES, 24 h): decreased levels of C-MYC in a dose-dependent manner; also recorded: down-regulated dose-dependently
- C-MYC protein levels, range of concentrations (C-MYC; OVCAR8): down-regulated dose-dependently
- C-MYC protein levels, range of concentrations (C-MYC; Pac-1): down-regulated dose-dependently
- TXNIP protein levels (TXNIP): downregulated; also recorded: down-regulated dose-dependently
- expression of LAMC2, TAGLN, CSRP1, SLC4A4, LAMB3, and LPP genes (NCI/ADR-RES cell line): significantly increase
- Fold-Change ACTC1 (NCI/ADR-RES cell line; NCI/ADR-RES, 0.4 uM, 4 hours): 2.238 fold
- Fold-Change APOBEC3 (NCI/ADR-RES cell line; NCI/ADR-RES, 0.4 uM, 4 hours): 0.309 fold
- Fold-Change ARMCX1 (NCI/ADR-RES cell line; NCI/ADR-RES, 0.4 uM, 4 hours): 0.417 fold
- Fold-Change ATP5I (NCI/ADR-RES cell line; NCI/ADR-RES, 0.4 uM, 4 hours): 0.496 fold
- Fold-Change AURKAIP1 (NCI/ADR-RES cell line; NCI/ADR-RES, 0.4 uM, 4 hours): 0.413 fold
- Fold-Change BHLHE40 (NCI/ADR-RES cell line; NCI/ADR-RES, 0.4 uM, 4 hours): 2.683 fold
- Fold-Change C19orf33 (NCI/ADR-RES cell line; NCI/ADR-RES, 0.4 uM, 4 hours): 0.378 fold
- Fold-Change CNO (NCI/ADR-RES cell line; NCI/ADR-RES, 0.4 uM, 4 hours): 0.395 fold
- Fold-Change CSRP1 (NCI/ADR-RES cell line; NCI/ADR-RES, 0.4 uM, 4 hours): 2.335 fold
- Fold-Change EGR1 (NCI/ADR-RES cell line; NCI/ADR-RES, 0.4 uM, 4 hours): 0.198 fold
- Fold-Change EXOSC4 (NCI/ADR-RES cell line; NCI/ADR-RES, 0.4 uM, 4 hours): 0.493 fold
- Fold-Change FJX1 (NCI/ADR-RES cell line; NCI/ADR-RES, 0.4 uM, 4 hours): 0.469 fold
- Fold-Change GALNT4 (NCI/ADR-RES cell line; NCI/ADR-RES, 0.4 uM, 4 hours): 0.356 fold
- Fold-Change GLIPR1 (NCI/ADR-RES cell line; NCI/ADR-RES, 0.4 uM, 4 hours): 2.574 fold
- Fold-Change HIST1H2A1 (NCI/ADR-RES cell line; NCI/ADR-RES, 0.4 uM, 4 hours): 0.483 fold
- Fold-Change HIST1H2AB (NCI/ADR-RES cell line; NCI/ADR-RES, 0.4 uM, 4 hours): 0.362 fold
- Fold-Change HIST1H2AE (NCI/ADR-RES cell line; NCI/ADR-RES, 0.4 uM, 4 hours): 0.471 fold
- Fold-Change HIST1H2AG (NCI/ADR-RES cell line; NCI/ADR-RES, 0.4 uM, 4 hours): 0.45 fold
- Fold-Change HIST1H2BL (NCI/ADR-RES cell line; NCI/ADR-RES, 0.4 uM, 4 hours): 0.441 fold
- Fold-Change HIST1H2BM (NCI/ADR-RES cell line; NCI/ADR-RES, 0.4 uM, 4 hours): 0.193 fold
- Fold-Change HIST1H2BN (NCI/ADR-RES cell line; NCI/ADR-RES, 0.4 uM, 4 hours): 0.378 fold
- Fold-Change HIST1H3B (NCI/ADR-RES cell line; NCI/ADR-RES, 0.4 uM, 4 hours): 0.432 fold
- Fold-Change HIST1H3F (NCI/ADR-RES cell line; NCI/ADR-RES, 0.4 uM, 4 hours): 0.322 fold
- Fold-Change HIST1H3G (NCI/ADR-RES cell line; NCI/ADR-RES, 0.4 uM, 4 hours): 0.496 fold
- Fold-Change HIST1H3H (NCI/ADR-RES cell line; NCI/ADR-RES, 0.4 uM, 4 hours): 0.136 fold
- Fold-Change HIST1H4C (NCI/ADR-RES cell line; NCI/ADR-RES, 0.4 uM, 4 hours): 0.338 fold
- Fold-Change HIST1H4H (NCI/ADR-RES cell line; NCI/ADR-RES, 0.4 uM, 4 hours): 0.324 fold
- Fold-Change HIST1H4L (NCI/ADR-RES cell line; NCI/ADR-RES, 0.4 uM, 4 hours): 0.416 fold
- Fold-Change HIST2H2AC (NCI/ADR-RES cell line; NCI/ADR-RES, 0.4 uM, 4 hours): 0.29 fold
- Fold-Change HIST3H2BB (NCI/ADR-RES cell line; NCI/ADR-RES, 0.4 uM, 4 hours): 0.446 fold
- Fold-Change HIST4H4 (NCI/ADR-RES cell line; NCI/ADR-RES, 0.4 uM, 4 hours): 0.483 fold
- Fold-Change HOXA1 (NCI/ADR-RES cell line; NCI/ADR-RES, 0.4 uM, 4 hours): 0.491 fold
- Fold-Change HOXC (NCI/ADR-RES cell line; NCI/ADR-RES, 0.4 uM, 4 hours): 0.477 fold
- Fold-Change HOXC4 (NCI/ADR-RES cell line; NCI/ADR-RES, 0.4 uM, 4 hours): 0.4 fold
- Fold-Change HSD17B10 (NCI/ADR-RES cell line; NCI/ADR-RES, 0.4 uM, 4 hours): 0.415 fold
- Fold-Change ILE (NCI/ADR-RES cell line; NCI/ADR-RES, 0.4 uM, 4 hours): 2.485 fold
- Fold-Change INGX (NCI/ADR-RES cell line; NCI/ADR-RES, 0.4 uM, 4 hours): 3.089 fold
- Fold-Change LAMB3 (NCI/ADR-RES cell line; NCI/ADR-RES, 0.4 uM, 4 hours): 2.089 fold
- Fold-Change LAMC2 (NCI/ADR-RES cell line; NCI/ADR-RES, 0.4 uM, 4 hours): 3.217 fold
- Fold-Change LINC00312 (NCI/ADR-RES cell line; NCI/ADR-RES, 0.4 uM, 4 hours): 2.165 fold
- Fold-Change LINC00493 (NCI/ADR-RES cell line; NCI/ADR-RES, 0.4 uM, 4 hours): 0.452 fold
- Fold-Change LOC100630918 (NCI/ADR-RES cell line; NCI/ADR-RES, 0.4 uM, 4 hours): 0.494 fold
- Fold-Change LPP (NCI/ADR-RES cell line; NCI/ADR-RES, 0.4 uM, 4 hours): 2.032 fold
- Fold-Change LSMD1 (NCI/ADR-RES cell line; NCI/ADR-RES, 0.4 uM, 4 hours): 2.261 fold
- Fold-Change MRPL34 (NCI/ADR-RES cell line; NCI/ADR-RES, 0.4 uM, 4 hours): 0.416 fold
- Fold-Change MRPL41 (NCI/ADR-RES cell line; NCI/ADR-RES, 0.4 uM, 4 hours): 0.496 fold
- Fold-Change MRPS26 (NCI/ADR-RES cell line; NCI/ADR-RES, 0.4 uM, 4 hours): 0.432 fold
- Fold-Change MYADM (NCI/ADR-RES cell line; NCI/ADR-RES, 0.4 uM, 4 hours): 2.114 fold
- Fold-Change PA2G4P4 (NCI/ADR-RES cell line; NCI/ADR-RES, 0.4 uM, 4 hours): 0.463 fold
- Fold-Change RPL23AP32 (NCI/ADR-RES cell line; NCI/ADR-RES, 0.4 uM, 4 hours): 2.141 fold
- Fold-Change RPS19BP1 (NCI/ADR-RES cell line; NCI/ADR-RES, 0.4 uM, 4 hours): 0.49 fold
- Fold-Change SCARNA2 (NCI/ADR-RES cell line; NCI/ADR-RES, 0.4 uM, 4 hours): 0.401 fold
- Fold-Change SCARNA10 (NCI/ADR-RES cell line; NCI/ADR-RES, 0.4 uM, 4 hours): 0.487 fold
- Fold-Change SCARNA17 (NCI/ADR-RES cell line; NCI/ADR-RES, 0.4 uM, 4 hours): 0.496 fold
- Fold-Change SDPR (NCI/ADR-RES cell line; NCI/ADR-RES, 0.4 uM, 4 hours): 0.497 fold
- Fold-Change SFTA1P (NCI/ADR-RES cell line; NCI/ADR-RES, 0.4 uM, 4 hours): 0.387 fold
- Fold-Change SLC4A4 (NCI/ADR-RES cell line; NCI/ADR-RES, 0.4 uM, 4 hours): 2.18 fold
- Fold-Change SNRNP25 (NCI/ADR-RES cell line; NCI/ADR-RES, 0.4 uM, 4 hours): 0.463 fold
- Fold-Change SSSCA1 (NCI/ADR-RES cell line; NCI/ADR-RES, 0.4 uM, 4 hours): 0.386 fold
- Fold-Change TAGLN (NCI/ADR-RES cell line; NCI/ADR-RES, 0.4 uM, 4 hours): 2.648 fold
- Fold-Change TCEAL1 (NCI/ADR-RES cell line; NCI/ADR-RES, 0.4 uM, 4 hours): 0.455 fold
- Fold-Change TMEM133 (NCI/ADR-RES cell line; NCI/ADR-RES, 0.4 uM, 4 hours): 2.846 fold
- Fold-Change TNFAIP3 (NCI/ADR-RES cell line; NCI/ADR-RES, 0.4 uM, 4 hours): 2.192 fold
- Fold-Change TPBG (NCI/ADR-RES cell line; NCI/ADR-RES, 0.4 uM, 4 hours): 0.374 fold
- Fold-Change TUBB2B (NCI/ADR-RES cell line; NCI/ADR-RES, 0.4 uM, 4 hours): 0.461 fold
- Fold-Change TWIST1 (NCI/ADR-RES cell line; NCI/ADR-RES, 0.4 uM, 4 hours): 0.319 fold
- Fold-Change TXNIP (NCI/ADR-RES cell line; NCI/ADR-RES, 0.4 uM, 4 hours): 0.281 fold
